From the supplement of paper PMC10307832

Tests used:
Assay in all cases: relative viability (nuclei count vs DMSO), 5 days (fraction); higher = more cells survive
NCI-H838 = test system: NCI-H838
How it was run: (§1)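 Dosing by pin tool came one day after lung cancer cell lines were seeded in 1536-well plates, using either one drug or a fixed anchor-drug dose plus five library-drug doses (not always all listed) in √10 steps. After 5 days, nuclei were counted on 4× images. Relative viability is treated-well nuclei count divided by vehicle-well nuclei count, and values are medians of duplicate plates.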

HARA = test system: HARA
How it was run: as §1

BEN = test system: BEN
How it was run: as §1

NCI-H441 = test system: NCI-H441
How it was run: as §1

NCI-H2126 = test system: NCI-H2126
How it was run: as §1

NCI-H23 = test system: NCI-H23
How it was run: as §1

NCI-H2023 = test system: NCI-H2023
How it was run: as §1

NCI-H3122 = test system: NCI-H3122
How it was run: as §1

NCI-H2347 = test system: NCI-H2347
How it was run: as §1

LCLC-103H = test system: LCLC-103H
How it was run: as §1

NCI-H647 = test system: NCI-H647
How it was run: as §1

201T = test system: 201T
How it was run: as §1

NCI-H596 = test system: NCI-H596
How it was run: as §1

LOU-NH91 = test system: LOU-NH91
How it was run: as §1

EMC-BAC-2 = test system: EMC-BAC-2
How it was run: as §1

NCI-H1666 = test system: NCI-H1666
How it was run: as §1

NCI-H2009 = test system: NCI-H2009
How it was run: as §1

NCI-H2087 = test system: NCI-H2087
How it was run: as §1

NCI-H727 = test system: NCI-H727
How it was run: as §1

NCI-H1395 = test system: NCI-H1395
How it was run: as §1

HCC-44 = test system: HCC-44
How it was run: as §1

NCI-H650 = test system: NCI-H650
How it was run: as §1

NCI-H1993 = test system: NCI-H1993
How it was run: as §1

`C=C1C(=O)O[C@@H](CCCCCCCC)[C@@H]1C(=O)O` [C-75] + CS(=O)(=O)N1CCN(Cc2cc3nc(-c4cccc5[nH]ncc45)nc(N4CCOCC4)c3s2)CC1 [Pictilisib] (partner 1 µM) showed a relative viability (NCI-H838; first compound 0.08 µM) of 0.43, a relative viability (NCI-H838; first compound 0.253 µM) of 0.376 and a relative viability (NCI-H838; first compound 0.8 µM) of 0.444. For the same compound, the relative viability (NCI-H838; first compound 2.53 µM) was 0.386, the relative viability (NCI-H838; first compound 8 µM) was 0.478 and the relative viability (HARA; first compound 0.08 µM) was 0.413. For the same compound, the relative viability (HARA; first compound 0.253 µM) was 0.432, the relative viability (HARA; first compound 0.8 µM) was 0.375 and the relative viability (HARA; first compound 8 µM) was 0.585. The relative viability (BEN; first compound 0.08 µM) was 0.541, the relative viability (BEN; first compound 0.253 µM) was 0.651 and the relative viability (BEN; first compound 0.8 µM) was 0.538. The relative viability (BEN; first compound 2.53 µM) was 0.553, the relative viability (BEN; first compound 8 µM) was 0.443 and the relative viability (NCI-H441; first compound 0.08 µM) was 0.473. For the same compound, the relative viability (NCI-H441; first compound 0.253 µM) was 0.536, the relative viability (NCI-H441; first compound 0.8 µM) was 0.403 and the relative viability (NCI-H441; first compound 2.53 µM) was 0.418. The relative viability (NCI-H441; first compound 8 µM) was 0.38, the relative viability (NCI-H2126; first compound 0.08 µM) was 0.465 and the relative viability (NCI-H2126; first compound 0.253 µM) was 0.597. For the same compound, the relative viability (NCI-H2126; first compound 0.8 µM) was 0.471, the relative viability (NCI-H2126; first compound 2.53 µM) was 0.506 and the relative viability (NCI-H2126; first compound 8 µM) was 0.469. For the same compound, the relative viability (NCI-H23; first compound 0.08 µM) was 0.459, the relative viability (NCI-H23; first compound 0.253 µM) was 0.686 and the relative viability (NCI-H23; first compound 0.8 µM) was 0.416. The relative viability (NCI-H23; first compound 2.53 µM) was 0.475, the relative viability (NCI-H23; first compound 8 µM) was 0.311 and the relative viability (NCI-H2023; first compound 0.08 µM) was 0.239. For the same compound, the relative viability (NCI-H2023; first compound 0.253 µM) was 0.29, the relative viability (NCI-H2023; first compound 0.8 µM) was 0.203 and the relative viability (NCI-H2023; first compound 2.53 µM) was 0.311. The relative viability (NCI-H2023; first compound 8 µM) was 0.262, the relative viability (NCI-H3122; first compound 0.08 µM) was 0.635 and the relative viability (NCI-H3122; first compound 0.253 µM) was 0.753. For the same compound, the relative viability (NCI-H3122; first compound 0.8 µM) was 0.545, the relative viability (NCI-H3122; first compound 8 µM) was 0.555 and the relative viability (NCI-H2347; first compound 0.08 µM) was 0.554. It also gave a relative viability (NCI-H2347; first compound 0.253 µM) of 0.877, a relative viability (NCI-H2347; first compound 0.8 µM) of 0.31 and a relative viability (NCI-H2347; first compound 2.53 µM) of 0.592. It also gave a relative viability (NCI-H2347; first compound 8 µM) of 0.649, a relative viability (LCLC-103H; first compound 0.08 µM) of 0.573 and a relative viability (LCLC-103H; first compound 0.253 µM) of 0.641. The relative viability (LCLC-103H; first compound 0.8 µM) was 0.517, the relative viability (LCLC-103H; first compound 2.53 µM) was 0.568 and the relative viability (LCLC-103H; first compound 8 µM) was 0.488. For the same compound, the relative viability (NCI-H647; first compound 0.08 µM) was 0.449, the relative viability (NCI-H647; first compound 0.253 µM) was 0.427 and the relative viability (NCI-H647; first compound 2.53 µM) was 0.396. It also gave a relative viability (NCI-H647; first compound 8 µM) of 0.498, a relative viability (201T; first compound 0.08 µM) of 0.697 and a relative viability (201T; first compound 0.253 µM) of 0.782. The relative viability (201T; first compound 0.8 µM) was 0.628, the relative viability (201T; first compound 2.53 µM) was 0.673 and the relative viability (201T; first compound 8 µM) was 0.719. It also gave a relative viability (NCI-H596; first compound 0.08 µM) of 0.406, a relative viability (NCI-H596; first compound 0.253 µM) of 0.39 and a relative viability (NCI-H596; first compound 0.8 µM) of 0.229. For the same compound, the relative viability (NCI-H596; first compound 2.53 µM) was 0.39, the relative viability (NCI-H596; first compound 8 µM) was 0.438 and the relative viability (LOU-NH91; first compound 0.08 µM) was 0.555. It also gave a relative viability (LOU-NH91; first compound 0.253 µM) of 0.602, a relative viability (LOU-NH91; first compound 0.8 µM) of 0.446 and a relative viability (LOU-NH91; first compound 2.53 µM) of 0.406. The relative viability (LOU-NH91; first compound 8 µM) was 0.461, the relative viability (EMC-BAC-2; first compound 0.08 µM) was 0.51 and the relative viability (EMC-BAC-2; first compound 0.253 µM) was 0.491. The relative viability (EMC-BAC-2; first compound 0.8 µM) was 0.51, the relative viability (EMC-BAC-2; first compound 2.53 µM) was 0.521 and the relative viability (EMC-BAC-2; first compound 8 µM) was 0.587. For the same compound, the relative viability (NCI-H1666; first compound 0.08 µM) was 0.49, the relative viability (NCI-H1666; first compound 0.253 µM) was 0.555 and the relative viability (NCI-H1666; first compound 0.8 µM) was 0.295. The relative viability (NCI-H1666; first compound 2.53 µM) was 0.41, the relative viability (NCI-H1666; first compound 8 µM) was 0.346 and the relative viability (NCI-H2009; first compound 0.08 µM) was 0.789. The relative viability (NCI-H2009; first compound 0.253 µM) was 0.96, the relative viability (NCI-H2009; first compound 0.8 µM) was 0.789 and the relative viability (NCI-H2009; first compound 2.53 µM) was 0.428. The relative viability (NCI-H2009; first compound 8 µM) was 0.6, the relative viability (NCI-H2087; first compound 0.08 µM) was 0.853 and the relative viability (NCI-H2087; first compound 0.253 µM) was 0.844. It also gave a relative viability (NCI-H2087; first compound 0.8 µM) of 0.733, a relative viability (NCI-H2087; first compound 2.53 µM) of 0.428 and a relative viability (NCI-H2087; first compound 8 µM) of 0.859. It also gave a relative viability (NCI-H727; first compound 0.08 µM) of 0.436, a relative viability (NCI-H727; first compound 0.253 µM) of 0.59 and a relative viability (NCI-H727; first compound 0.8 µM) of 0.339. It also gave a relative viability (NCI-H727; first compound 2.53 µM) of 0.362, a relative viability (NCI-H727; first compound 8 µM) of 0.577 and a relative viability (NCI-H1395; first compound 0.08 µM) of 0.599. For the same compound, the relative viability (NCI-H1395; first compound 0.253 µM) was 0.572, the relative viability (NCI-H1395; first compound 0.8 µM) was 0.539 and the relative viability (NCI-H1395; first compound 2.53 µM) was 0.474. It also gave a relative viability (NCI-H1395; first compound 8 µM) of 0.7, a relative viability (HCC-44; first compound 0.08 µM) of 0.65 and a relative viability (HCC-44; first compound 0.253 µM) of 0.599. The relative viability (HCC-44; first compound 0.8 µM) was 0.558, the relative viability (HCC-44; first compound 2.53 µM) was 0.622 and the relative viability (HCC-44; first compound 8 µM) was 0.644. For the same compound, the relative viability (NCI-H650; first compound 0.08 µM) was 0.864, the relative viability (NCI-H650; first compound 0.253 µM) was 0.825 and the relative viability (NCI-H650; first compound 0.8 µM) was 0.801. The relative viability (NCI-H650; first compound 2.53 µM) was 0.815, the relative viability (NCI-H650; first compound 8 µM) was 0.883 and the relative viability (NCI-H1993; first compound 0.08 µM) was 0.727. The relative viability (NCI-H1993; first compound 0.253 µM) was 0.938, the relative viability (NCI-H1993; first compound 0.8 µM) was 0.842 and the relative viability (NCI-H1993; first compound 2.53 µM) was 0.801. For the same compound, the relative viability (NCI-H1993; first compound 8 µM) was 0.914.
